{"source": "patent US4011328A", "about": "“Derivatives of pyridine-3-acetic acid, process for their preparation and applications thereof” (SERDEX - Societe d'Etudes, de Recherches, de Diffusion et …, priority 1973, dated 1977)", "type_in_all_cases": "in vivo", "key": {"[1]": {"tested_on": "Turfyl nicotinate (Trafuril)-induced erythema", "assay": "Erythema with Turfyl nicotinate (Trafuril), anti-inflammatory power", "details": "Cavia porcellus, po; male albino guinea-pigs; buccally 1 hour before test; result at the end of 5 minutes", "experimental": "(§1) b. Anti-inflammatory power.\n2. Erythema with Turfyl nicotinate(Trafuril).\nThe NAINING method is used (Br.jl.Pharmacol. 1963-21-104-12), slightly modified:\nThe test is carried out on homogeneous groups of six to 12 male albino guinea-pigs weighing 300-400 g, the skin of the back having been carefully plucked the day before.\nOn the day of the test an antibiogramme disc saturated with an alcoholic solution at 5% of Turfyl nicotinate is applied to the lumbar region for 1 minute.\nThe result is observed at the end of 5 minutes.\nThe results are recorded on an \"all or nothing\" basis, according to which an erythema appears at the place in which the disc was applied.\nThe treatment is administered buccally 1 hour before the test, with a uniform volume of 1 ml per kg of body weight; the products are placed in homogeneous suspension by the aid of 3% of gum arabic.\nThe pilot animals are given an equal volume of vehicle.\nThe percentage of erythema produced in the treated animals is compared with that of the pilot group observed at the same time."}, "[2]": {"tested_on": "carragheen-induced localized oedema", "assay": "Acute oedema with carragheen, anti-inflammatory power", "details": "Rattus norvegicus, po; male rats; buccally 1 hour before carragheen; oedema 3 hours after carragheen", "experimental": "as §1\n1. Acute oedema with carragheen.\n(Winster C. A., Risley R. A., Nuss G. W. -- Proc.Soc.Biol. Med.1962,3,544-7).\nThe injection, under the arch of the rat's foot, of 0.05 ml of an aqueous gel with 1% carragheen produces a localized oedema which can be measured with an electric plethysmometer of the mercury type.\nThe percentage of inflammation can be calculated by measuring the volume of the […] foot before and 3 hours after the carragheen injection.\nThe treatment is given buccally, 1 hour before the carragheen.\nThe test is carried out on homogeneous groups of ten male rats of 180 ± 10 g.\nFor each animal the oedema is measured as follows: [formula]\nWhen the percentage of oedema is known for the pilot group, the protection observed under the effect of the substance tested is deducted therefrom for the treated groups."}, "[3]": {"tested_on": "2-phenyl-1,4-benzoquinone-induced stretching of the rear feet and torsion of the trunk", "assay": "Siegmund test, analgesic power: phenylbenzoquinone-induced stretchings/torsions", "details": "Mus musculus, ip; mice; substance given 1 hour before intraperitoneal phenylbenzoquinone; observed 5th-10th minute", "experimental": "The intraperitoneal injection of 0.25 ml of a hydroalcoholic solution of 2-phenyl-1,4-benzoquinone at a concentration of 0.02% produces in mice a particular syndrom characterized by the stretching of the rear feet and the torsion of the trunk.\nThe test is carried out on homogeneous groups of 20 to 30 mice with an average weight of 20 g.\nThe substance to be studied is administered to them at the time \"0.\" One hour later the phenylbenzoquinone is administered intraperitoneally. The animals are observed individually for 5 minutes, between the 5th and 10th minute following the injection of the phenyl benzoquinone. The number of stretchings performed by each animal during the observation period is noted.\nThe percentage of activity of the substance is calculated by comparing the number of torsions performed by the animals and those performed by pilot animals."}}}
{"smiles": "COc1ccc(-c2nc(C)c(CC(=O)O)cc2-c2ccc(Cl)cc2)cc1", "note": "[Example 3]", "values": [{"measurement": "ED50", "setting": "[1]", "result": 5.2, "unit": "mg/kg"}, {"measurement": "ED50", "setting": "[2]", "result": 28, "unit": "mg/kg"}, {"measurement": "ED50", "setting": "[3]", "result": 0.9, "unit": "mg/kg"}]}
{"smiles": "Cc1ccc2c(c1)-c1nc(C)c(CC(=O)O)cc1CO2", "note": "[Example 1]", "values": [{"measurement": "ED50", "setting": "[1]", "result": 78, "unit": "mg/kg"}, {"measurement": "ED50", "setting": "[2]", "result": 16, "unit": "mg/kg"}, {"measurement": "ED50", "setting": "[3]", "result": 150, "unit": "mg/kg"}]}
